Measured values as given in patent publication US4321265A, “7α-Methoxycephalosporins” (Toyama Chemical Co., Ltd., priority 1977, dated 1982).
Converted amounts (≈) assume the structure as drawn. Where two headings read alike, the source gives them in different places.

Assays:
[1] = target: T1, β-lactamase (cephalosporinase, C. freundii GN-346) (Citrobacter freundii, UniProt P05193); assay: Inhibitory dose to β-lactamase, iodometric method of Perret, Cefazolin as substrate; format: biochemical; conditions: read-out: Inhibitory dose to β-lactamase (ID50) (converted)
T1 construct: producing bacteria; endogenous in cells; host or cells: C. freundii GN-346
T1 sequence (P05193 21-381): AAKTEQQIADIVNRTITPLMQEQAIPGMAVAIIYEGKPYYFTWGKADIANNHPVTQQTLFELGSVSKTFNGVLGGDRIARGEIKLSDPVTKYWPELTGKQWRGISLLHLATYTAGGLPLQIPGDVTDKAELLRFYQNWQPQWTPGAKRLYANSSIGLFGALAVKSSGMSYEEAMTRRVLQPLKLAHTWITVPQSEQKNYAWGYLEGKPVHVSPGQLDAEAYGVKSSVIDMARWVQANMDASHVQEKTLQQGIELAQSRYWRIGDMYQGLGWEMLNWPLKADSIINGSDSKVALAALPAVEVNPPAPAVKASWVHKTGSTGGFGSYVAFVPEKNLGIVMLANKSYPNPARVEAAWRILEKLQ

[2] = tested on: Ser. marcescens W-35; assay: Minimum inhibitory concentration (MIC), Heart Infusion agar; format: cell-based; conditions: Serratia marcescens, W35, 20 h, S. marcescens W-35, read-out: MIC
Protocol: Antibacterial activities of the representative compounds (Ib) of the 7α-methoxycephalosporins according to this invention are shown in Table 1. [drawing 20]
The figures given in Table 1 represent the minimum inhibitory concentration (MIC in mcg/ml) of each compound, which was determined according to the method described in "Chemotherapy (Society of Chemotherapy, Japan), Vol. 16, 98-99 (1968)": A culture obtained by cultivating the test bacterium in a Heart Infusion broth (Eiken Kagaku Co.) was inoculated into a Heart Infusion agar medium (Eiken Kagaku Co.). After 20 hours of the incubation at 37° C., the growth of the bacterium was inspected to determine the minimum inhibitory concentration (MIC in mcg/ml). […]
(1) Minimum inhibitory concentration (MIC in mcg/ml).

[3] = Toxicity (LD50); conditions: mouse, in vivo; ICR-strain mice; intravenous
Description: The 7α-methoxycephalosporins of this invention are low-toxic.

[4] = tested on: S. marcescens W-35; assay: Infection-protective activity in mice; format: in vivo, ICR-strain mice (male); conditions: subcutaneous, one hour after intraperitoneal inoculation; challenge dose 2.5 × 10^5 cells/mouse; ICR mice
Description: Four-week old ICR-strain mice (male) in groups, each group consisting of five mice, were inoculated intraperitoneally with a prescribed quantity of a pathogenic bacterium suspended in 5% mucin. After one hour from the inoculation, the mice were subcutaneously administered with the test preparation to determine the infection-protective activity. The figures in Table 4 represent the protective activity in terms of ED50.

[5] = tested on: Penicillinase (K. pneumoniae Y-4); assay: Stability to β-lactamase, iodometry (Perret); format: biochemical; conditions: K. pneumoniae Y-4 penicillinase; PCG = 100; 30° C., pH 7.0
Protocol: (§1) The stability to β-lactamase was examined by iodometry at 30° C. by the method of Perret (Perret, C. J., "Iodometric assay of penicillinase", Nature, 174, 1012-1013 (1954)), except that a 0.1 M phosphate buffer solution (pH 7.0) was used in place of the 0.2 M phosphate buffer solution (pH 6.5). The stability of each compound was shown in Table 2 in terms of relative degree of hydrolysis, assuming the stability of Cephaloridin (CER) to cephalosporinase as 100 and the stability of Penicillin G (PCG) to penicillinase as 100.

[6] = target: T2, Cephalosporinase (S. marcescens W-8) (Serratia marcescens, UniProt P18539); assay: Stability to β-lactamase, iodometry (Perret); format: biochemical; conditions: S. marcescens W-8 cephalosporinase; CER = 100; 30° C., pH 7.0
T2 construct: native preparation, details not in excerpts
T2 sequence (P18539 22-376): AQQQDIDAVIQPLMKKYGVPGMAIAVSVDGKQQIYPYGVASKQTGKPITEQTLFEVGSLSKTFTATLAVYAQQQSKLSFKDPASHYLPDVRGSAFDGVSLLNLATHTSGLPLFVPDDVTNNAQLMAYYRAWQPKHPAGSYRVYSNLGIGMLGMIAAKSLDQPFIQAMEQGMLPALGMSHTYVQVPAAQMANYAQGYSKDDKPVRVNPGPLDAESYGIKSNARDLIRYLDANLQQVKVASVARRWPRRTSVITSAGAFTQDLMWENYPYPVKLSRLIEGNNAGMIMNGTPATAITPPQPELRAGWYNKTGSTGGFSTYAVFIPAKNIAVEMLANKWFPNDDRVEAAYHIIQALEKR
Protocol: as §1

[7] = tested on: Penicillinase (E. coli TK-3); assay: Stability to β-lactamase, iodometry (Perret); format: biochemical; conditions: E. coli TK-3 penicillinase; PCG = 100; 30° C., pH 7.0
Protocol: as §1

[8] = target: T3, Cephalosporinase (E. coli GN-5482) (Escherichia coli, UniProt P00811); assay: Stability to β-lactamase, iodometry (Perret); format: biochemical; conditions: E. coli GN-5482 cephalosporinase; CER = 100; 30° C., pH 7.0
T3 construct: native preparation, details not in excerpts
T3 sequence (P00811 20-377): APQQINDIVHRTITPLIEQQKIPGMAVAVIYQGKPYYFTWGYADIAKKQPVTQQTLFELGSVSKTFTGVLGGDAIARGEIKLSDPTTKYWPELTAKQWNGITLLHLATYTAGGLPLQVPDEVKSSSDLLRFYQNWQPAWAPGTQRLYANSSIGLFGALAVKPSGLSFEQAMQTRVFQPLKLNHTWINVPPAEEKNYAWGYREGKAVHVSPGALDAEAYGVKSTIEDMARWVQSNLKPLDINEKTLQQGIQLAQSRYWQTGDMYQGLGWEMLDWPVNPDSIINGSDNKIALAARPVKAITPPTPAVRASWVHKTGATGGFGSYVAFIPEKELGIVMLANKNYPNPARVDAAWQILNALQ
Protocol: as §1

[9] = tested on: Penicillinase (P. aeruginosa GN-3379); assay: Stability to β-lactamase, iodometry (Perret); format: biochemical; conditions: P. aeruginosa GN-3379 penicillinase; PCG = 100; 30° C., pH 7.0
Protocol: as §1

[10] = target: T4, β-lactamase (cephalosporinase, E. coli GN-5482) (Escherichia coli, UniProt P00811); assay: Inhibitory dose to β-lactamase, iodometric method of Perret, Cefazolin as substrate; format: biochemical
T4 construct: producing bacteria; endogenous in cells; host or cells: E. coli GN-5482
T4 sequence (P00811 20-377): as above

[11] = target: T5, β-lactamase (cephalosporinase, S. marcescens W-8) (Serratia marcescens, UniProt P18539); assay: as above; format: biochemical; conditions: read-out: Inhibitory dose to β-lactamase (ID50) (converted)
T5 construct: producing bacteria; endogenous in cells; host or cells: S. marcescens W-8
T5 sequence (P18539 22-376): as the sequence (P18539 22-376) above

Work on `CCN1CCN(C(=O)NC(C(=O)N[C@]2(OC)C(=O)N3C(C(=O)O)=C(CSc4nnnn4C)CS[C@@H]32)c2cccs2)C(=O)C1=O` (stereo partly drawn) [Example T-1414] yielded an IC50 [1] of 2550 nM, an MIC ([2]; inoculated bacteria quantity 10^6 cells/ml (Table 4)) of 6.25 µg/mL (≈ 9.39 µM) and an MIC ([2]; inoculated bacteria quantity 10^8 cells/ml (Table 4)) of 12.5 µg/mL (≈ 18.8 µM). For the same molecule, the LD50 [3] was at least 5000 mg/kg, the “ED50 (infection-protective activity)” value [4] was 0.84 mg/mouse and the “Stability to β-lactamase, relative degree of hydrolysis” value [5] was under 0.09. For the same molecule, the “Stability to β-lactamase, relative degree of hydrolysis” value [6] was 0.02, the “Stability to β-lactamase, relative degree of hydrolysis” value [7] was under 0.003 and the “Stability to β-lactamase, relative degree of hydrolysis” value [8] was under 0.1. For the same molecule, the “Stability to β-lactamase, relative degree of hydrolysis” value [9] was 0.03, the IC50 [10] was 1230 nM and the IC50 [11] was 811 nM.
